Entries after “also recorded” stand apart in the source; their conditions may differ.
Legend:
[1] = system: human naïve NKTs (CD161^+CD3^+); assay: Cytokine/chemokine secretion by human naïve CD161+CD3+ NKTs co-cultured with autologous immature CD14+ DCs; type: cell-based; details: for induction of IL-3, GM-CSF and IL-15 / secretion of IFN-γ: 10 μg/ml, 18 hour culture; for secretion of IFN-γ: compared with α-GalCer; for IFN/IL-4 ratio (TH1/TH2 bias): normalized to DMSO control
naïve CD161^+/CD3^+ NKTs = assay: Human NKT TCR activation (phosphoproteins), glycolipid presented by HeLa, HeLa-CD1d or iDCs, 10 μg/ml; type: cell-based; details: for intracellular phospho-CD3ε / phospho-ERK1/2: 10 μg/ml
BALB/c mice [2] = assay: Mouse serum cytokines/chemokines after IV, SubQ or IM injection; type: in vivo; details: for serum IL-2, IL-12, MIP-1β and MCP-1: IV administration
BALB/c mice [3] = assay: Expansion/activation of mouse splenocyte subpopulations 72 h after injection; type: in vivo; details: for CD8^+/CD4^+ ratio: FIGS. 26H, 28H and 30H; for activation of B cells: IM route; for activation of B cells / total and mature DCs: compared with C1; for B cell expansion: FIGS. 26E, 28E and 30E; for total and mature DCs: FIGS. 26B, 28B and 30B
[4] = system: syngeneic lung cancer (TC1) cells; assay: Lung cancer model in mice (TC1, IV inoculation); type: in vivo, mouse; details: for anti-cancer efficacy compared with C1: IV administration
[5] = system: syngeneic breast cancer (4T1); assay: Breast cancer model in mice (4T1, SubQ inoculation); type: in vivo, mouse
tetanus toxoid (TT) = details: mouse, in vivo
[6] = system: extracellular domain of the M2 protein of the H1N1 subtype of the Influenza A virus; details: mouse, in vivo
[7] = system: FLU-A virus serotype H1N1 (WSN); assay: Influenza virus H1N1 (WSN) infection in BALB/c mice; details: mouse, in vivo
Sphingomonas capsulata = assay: Antibacterial efficacy in Sphingomonas capsulata infected mice; type: in vivo, mouse; details: for CFU numbers in liver: 100 μg/kg IP, 24 hour after bacterial infection
Text: Sphingomonas capsulata is a common environmental bacterial strain that is found in many places such as the air and water. It can be easily identified on nutrient agar plates because of its yellow colony color. […] Since the antibacterial activities of glycolipid antigens are mediated through the activation of NKT cells by glycolipid bound-CD1-d molecules, evaluation of the antibacterial efficacies using the disease model of Sphingomonas capsulata infection will focus on the impact of the NKT mediated pathway that is activated by glycolipid bindings. Six to eight week old female C57BL/6 mice were injected IP with Sphingomonas capsulate cells. […] Twenty-four hours after bacterial infection, livers were removed from mice and homogenized. Colony formation units (CFU) of Sphingomonas capsulate in liver homogenates were determined by plating diluted samples on nutrient plates. Colonies were counted after incubation for 48 hours at 37° C. […] To confirm the antibacterial efficacies of these α-GalCer analogs, another study was conducted to repeat the study by treating infected mice with 50 μg/kg in the same disease model. […] Six to eight week old female C57BL/6 mice were injected IP with 5×10^8 Sphingomonas capsulate cells. Mice were grouped into treatment and control groups with 4-6 mice per group. Four hours after the infection, mice in the treatment group were injected IP with testing α-GalCer analogs at 50 or 100 μg/kg, and the control group mice were injected with same volumes of PBS. Twenty-four hours after bacterial infection, mice from all groups were sacrificed. Livers were removed from mice and homogenized in 0.9% NaCl, 0.02% Tween 80 using tissue homogenizers. Colony formation units (CFU) of Sphingomonas capsulate in liver homogenates were determined by plating diluted samples on nutrient plates. Colonies were counted after incubation for 48 hours at 37° C.

[8] = system: FLU-A virus serotype H1N1 (WSN); assay: Cytopathetic effect / virus titer in MDCK cells infected with H1N1 (WSN); type: cell-based
Method: FIG. 60(A-B) show the cytopathetic effect (CPE) of Madin-Darby canine kidney (MDCK) cells in vitro. MDCK cells were pretreated with vehicle, α-GalCer or one of the α-GalCer analogs C13, C14 or C16 at 10 μg/ml for four hours, followed by infection with FLU-A virus serotype H1N1 (WSN) at 10TCID50.
BALB/c mice were treated via intranasal route with control, α-GalCer (C1) or the α-GalCer analogs C13, C14 or C16 at one hour prior to virus challenge with H1N1 (WSN). […] In general, certain α-GalCer analogs may exert direct anti-viral effects, or act indirectly via immune stimulation. […] MDCK cells were pretreated with vehicle, α-GalCer or one of the α-GalCer analogs C13, C14 or C16 at 10 μg/ml for four hours, followed by infection with FLU-A virus serotype H1N1 (WSN) at 10TCID50.

[9] = system: primary naïve human iNKTs; assay: Cytokine production by primary naïve human iNKTs cultured with autologous immature DCs; type: cell-based; details: compared with C11
C57BL/6 mice = assay: Expansion of NKT subsets in spleens of C57BL/6 mice; type: in vivo; details: C57BL/6 Wt, 72 h post IV injection, 0.1 μg per mouse
[10] = system: H5 of avian influenza viruses (pHA); type: in vivo, mouse; details: mouse, in vivo

Question: Which results are given for `CCCCCCCCCCCCCC[C@@H](O)[C@@H](O)[C@H](CO[C@H]1O[C@H](CO)[C@H](O)[C@H](O)[C@H]1O)NC(=O)CCCCCCCc1ccccc1` [C11]?
Answer: induction of IL-3, GM-CSF and IL-15 [1]: greater induction of IL-3, granulocyte/macrophage colony-stimulating factor (GM-CSF), and IL-15; secretion of IFN-γ [1]: significantly greater secretion of IFN-γ than α-GalCer; TCR activation (naïve CD161^+/CD3^+ NKTs; CD1d-dependent, HeLa-CD1d or DCs): stronger in TCR activation than compounds C1 and C17; intracellular phospho-CD3ε (naïve CD161^+/CD3^+ NKTs; presented by DCs): 21.3 folds; intracellular phospho-CD3ε (naïve CD161^+/CD3^+ NKTs; presented by HeLa-CD1d cells): 10 folds of control; phospho-ERK1/2 (naïve CD161^+/CD3^+ NKTs; with DCs): 48.3 folds; phospho-ERK1/2 (naïve CD161^+/CD3^+ NKTs; with HeLa-CD1d cells): 14.6 folds increase; serum IL-2, IL-12, MIP-1β and MCP-1 (BALB/c mice [2]): striking rises in IL-2, IL-12, MIP-1β and MCP-1; CD8^+/CD4^+ ratio (BALB/c mice [3]): more potent than C1; activation of B cells (BALB/c mice [3]): stronger activations of B cells than C1; CD8^+ T cells (BALB/c mice [3]; SubQ route): more activity than C1; B cell expansion/activation (BALB/c mice [3]; mouse, in vivo): significant activities; NK and NKT expansion/activation (BALB/c mice [3]; mouse, in vivo): comparable activities as C1; tumor nodules on the lung surface ([4]; sacrificed on day 16 after tumor inoculation): reduced number of tumor nodules on the lung surface; tumor size ([5]; 16 days after treatment): reduced tumor size; tumor growth and survival compared to control ([5]; SubQ delivery): able to suppress tumor growth and prolong survival as compared to control; antibody response relative to conventional vaccine (tetanus toxoid (TT)): ~2 fold; durability of adjuvant effects (tetanus toxoid (TT)): remarkably durable; level of antibody after delayed boost compared with TT+Alum (tetanus toxoid (TT)): twice as high as those given TT+Alum; adjuvant effect (comparison) [6]: best adjuvant effect which was equivalent to complete Freund's adjuvant (CFA); titer relative to C1 [6]: 3 fold; survival [7]: significantly enhanced survival; antibacterial efficacies (CFU in liver) (Sphingomonas capsulata; 50 μg/kg): significant in comparison to the untreated group; difference in the values of the CFU per gram liver among efficacious groups (Sphingomonas capsulata; 50 μg/kg): not statistically significant; CFU numbers in liver (Sphingomonas capsulata): significantly lower than the control group

Question: What does the source list for `CCCCCCCCCCCCCC[C@@H](O)[C@@H](O)[C@H](CO[C@H]1O[C@H](CO)[C@H](O)[C@H](O)[C@H]1O)NC(=O)CCCCCc1ccccc1` [C10]?
Answer: induction of IL-3, GM-CSF and IL-15 [1]: greater induction of IL-3, granulocyte/macrophage colony-stimulating factor (GM-CSF), and IL-15; B cell expansion (BALB/c mice [3]): more active than C1; anti-cancer efficacy compared with C1 [4]: significantly greater anti-cancer efficacy than C1

Question: For `CCCCCCCCCCCCCC[C@@H](O)[C@@H](O)[C@H](CO[C@H]1O[C@H](CO)[C@H](O)[C@H](O)[C@H]1O)NC(=O)CCCCCCCCCCc1ccccc1` [C16], which “induction of IL-3, GM-CSF and IL-15” value [1] is on record?
Answer: The value was “greater induction of IL-3, granulocyte/macrophage colony-stimulating factor (GM-CSF), and IL-15”.

Question: And the “secretion of IFN-γ” value [1]?
Answer: Its value is “significantly greater secretion of IFN-γ than α-GalCer”.

Question: What about the “IFN-γ/IL-4 ratio (TH1/TH2 bias)” value (BALB/c mice [2]; 2 hours, IV route, compared with C1) of the same compound?
Answer: Its value is “less TH2 responses than C1”.

Question: What about the “serum IL-2, IL-12, MIP-1β and MCP-1” value (BALB/c mice [2]) of the same compound?
Answer: Its value is “striking rises in IL-2, IL-12, MIP-1β and MCP-1”.

Question: And the “serum level of IFN-γ” value (BALB/c mice [2]; IV route, over 72 hours)?
Answer: Its value is “level of activity close to that of C1”.

Question: What about the “total and mature DCs” value (BALB/c mice [3]) of the same compound?
Answer: The value was “significantly greater rises in total and mature DCs than C1”.

Question: And the B cell expansion (BALB/c mice [3])?
Answer: Its B cell expansion is “most effective in B cell expansion”.

Question: And the “CD8^+/CD4^+ ratio” value (BALB/c mice [3])?
Answer: The value was “more potent than C1”.

Question: What about the “activation of B cells” value (BALB/c mice [3]) of the same compound?
Answer: Its value is “stronger activations of B cells than C1”.

Question: What about the expansion of splenocytes (BALB/c mice [3]; IV administration, 72 hours) of the same compound?
Answer: Its expansion of splenocytes is “greater potency than C1”.

Question: What about the “CD4^+ T cells” value (BALB/c mice [3]; SubQ route) of the same compound?
Answer: The value was “more active over control”.

Question: And the “CD8^+ T cells” value (BALB/c mice [3]; SubQ route)?
Answer: Its value is “more activity than C1”.

Question: What about the “CD8^+ T cell expansion/activation” value (BALB/c mice [3]; mouse, in vivo) of the same compound?
Answer: Its value is “comparable activities as C1; also recorded: more active than C1”.

Question: What about the “NK and NKT expansion/activation” value (BALB/c mice [3]; mouse, in vivo) of the same compound?
Answer: Its value is “comparable activities as C1”.

Question: What about the “expansion/activation of NKs and NKTs” value (BALB/c mice [3]; mouse, in vivo) of the same compound?
Answer: Its value is “best capacity for expansion/activation of NKs and NKTs”.

Question: What about the “anti-cancer efficacy compared with C1” value [4] of the same compound?
Answer: Its value is “significantly greater anti-cancer efficacy than C1”.

Question: What about the “effects on survival compared with C1” value ([5]; SubQ delivery) of the same compound?
Answer: The value was “did not differ significantly from that of C1”.

Question: What about the “suppression of tumor size compared with C1” value ([5]; SubQ delivery) of the same compound?
Answer: Its value is “significantly greater suppression of tumor size than C1”.

Question: What about the “tumor growth and survival compared to control” value ([5]; SubQ delivery) of the same compound?
Answer: The value was “able to suppress tumor growth and prolong survival as compared to control”.

Question: What about the “cumulative proportion of survival” value ([7]; ip) of the same compound?
Answer: Its value is “prolonged survival”.

Question: And the “entry/replication of H1N1 virus (virus titer)” value [8]?
Answer: The value was “slight inhibition of the entry/replication of H1N1 virus in vitro”.

Question: What about the “antibacterial efficacies (CFU in liver)” value (Sphingomonas capsulata; 50 μg/kg) of the same compound?
Answer: Its value is “significant in comparison to the untreated group”.

Question: What about the “CFU numbers in liver” value (Sphingomonas capsulata) of the same compound?
Answer: Its value is “significantly lower than the control group”.

Question: What does the source list for `CCCCCCCCCCCCCCCCCCCCCCCCCC(=O)N[C@@H](CO[C@H]1O[C@H](CO)[C@H](O)[C@H](O)[C@H]1O)[C@H](O)[C@H](O)CCCCc1ccccc1` [C12]?
Answer: IFN/IL-4 ratio (TH1/TH2 bias) [1]: more TH1-biased; total and mature DCs (BALB/c mice [3]): significantly greater rises in total and mature DCs than C1; expansion/activation of NKs and NKTs (BALB/c mice [3]; FIGS. 26C-D, 28C-D and 30C-D): best capacity for expansion/activation of NKs and NKTs; CD8^+ T cell expansion/activation (BALB/c mice [3]; FIGS. 26F, 28F and 30F): more active than C1; activation of B cells (BALB/c mice [3]): stronger activations of B cells than C1; anti-cancer efficacy compared with C1 [4]: significantly greater anti-cancer efficacy than C1

Question: For `CCCCCCCCCCCCCC[C@@H](O)[C@@H](O)[C@H](CO[C@H]1O[C@H](CO)[C@H](O)[C@H](O)[C@H]1O)NC(=O)CCCCCCCCCCc1ccc(-c2ccccc2)cc1` [C26], which IFN-γ/IL4 ratio [9] is on record?
Answer: The IFN-γ/IL4 ratio was “higher IFN-γ/IL4 ratio”.

Question: What about the IL-2 [9] of the same compound?
Answer: Its IL-2 is “higher levels of IL-2”.

Question: And the “total number of NKTs and its two subtypes NKT1 and NKT2” value (C57BL/6 mice)?
Answer: Its value is “increase of total number of NKTs”.

Question: What about the “adjuvant activities in enhancing the anti-HAc antibody titer” value [10] of the same compound?
Answer: The value was “better adjuvant activities than the others in enhancing the antibody titer”.

Question: What about the “anti-HA-specific IgG antibody” value [10] of the same compound?
Answer: The value was “enhanced”.

Question: And the effectiveness as adjuvant [10]?
Answer: The effectiveness as adjuvant was “particularly effective as adjuvants”.

Question: How did the “IFN/IL-4 ratio (TH1/TH2 bias)” value [1] turn out when `CCCCCCCCCCCCCCCCCCCCCCCCCC(=O)N[C@@H](CS[C@H]1O[C@H](CO)[C@H](O)[C@H](O)[C@H]1O)[C@H](O)[C@H](O)CCCCCCCCCCCCCC` [C4] was run?
Answer: Its value is “more TH2-biased”.
